Results: patent US11505543B2, “4-oxo-3,4-dihydroquinazoline compounds as inhibitors of human immunodeficiency virus replication” (VIIV HEALTHCARE UK (NO.5) LIMITED, priority 2018, dated 2022)

Tests used:
[1] = system: recombinant NL4-3 virus (nef section replaced with Renilla luciferase gene) in MT-2 cells; assay: HIV cell culture assay (antiviral activity, luciferase readout); assay type: cell-based; settings: Renilla, NL43, MT-2 cells infected for 4-5 days with recombinant NL4-3 Renilla luciferase virus, serial dilutions of compound
In short: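 Test compound in serial dilution was present while MT-2 cells were infected for 4–5 days with recombinant NL4-3 virus made in 293T cells. Antiviral activity was quantified as Renilla luciferase activity, read with a live-cell substrate. EC50 came from the median-effect equation.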

[2] = Compound cytotoxicity, XTT-based colorimetric assay; assay type: cell-based; settings: human, uninfected MT2 cells, day 4, XTT
In short: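 Run under the antiviral-assay protocol but without virus. Viability was read on day 4 and CC50 values were derived from the readout.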

**Q.** Which EC50 [1] does the source give for `Cc1ccccc1-c1ccc2c(=O)n(-c3ccc(S(=O)(=O)N4CCOCC4)cc3)c([C@H](Cc3cc(F)cc(F)c3)NC(=O)Cn3ccc(C4CC4)n3)nc2c1` [Example 143, (S)-2-(3-cyclopropyl-1H-pyrazol-1-yl)-N-(2-(3,5-difluorophenyl)-1-(3-(4-(morpholinosulfonyl)phenyl)-4-oxo-7-(o-tolyl)-3,4-dihydroquinazolin-2-yl)ethyl)acetamide] here?
**A.** 42 nM

**Q.** And the CC50 at 4 day [2]?
**A.** > 1000 nM

**Q.** Which EC50 [1] does the source give for `O=C(Cn1ccc(C2CC2)n1)N[C@@H](Cc1cc(F)cc(F)c1)c1nc2cc(-c3ccccc3)ccc2c(=O)n1-c1ccc(S(=O)(=O)N2CCOCC2)cc1` [Example 144, (S)-2-(3-cyclopropyl-1H-pyrazol-1-yl)-N-(2-(3,5-difluorophenyl)-1-(3-(4-(morpholinosulfonyl)phenyl)-4-oxo-7-phenyl-3,4-dihydroquinazolin-2-yl)ethyl)acetamide] here?
**A.** 16 nM

**Q.** And the CC50 at 4 day [2]?
**A.** > 500 nM

**Q.** Which EC50 [1] does the source give for `O=C(Cn1ccc(C2CC2)n1)N[C@@H](Cc1cc(F)cc(F)c1)c1nc2cc(-c3ccccc3Cl)ccc2c(=O)n1-c1ccc(S(=O)(=O)N2CCOCC2)cc1` [Example 145, (S)-N-(1-(7-(2-chlorophenyl)-3-(4-(morpholinosulfonyl)phenyl)-4-oxo-3,4-dihydroquinazolin-2-yl)-2-(3,5-difluorophenyl)ethyl)-2-(3-cyclopropyl-1H-pyrazol-1-yl)acetamide] here?
**A.** 16 nM

**Q.** And the CC50 at 4 day [2]?
**A.** > 500 nM

**Q.** Which EC50 [1] does the source give for `O=C(Cn1ccc(C2CC2)n1)N[C@@H](Cc1cc(F)cc(F)c1)c1nc2cc(-c3ccccc3-c3ccccc3)ccc2c(=O)n1-c1ccc(S(=O)(=O)N2CCOCC2)cc1` [Example 146, (S)-N-(1-(7-([1,1′-biphenyl]-2-yl)-3-(4-(morpholinosulfonyl)phenyl)-4-oxo-3,4-dihydroquinazolin-2-yl)-2-(3,5-difluorophenyl)ethyl)-2-(3-cyclopropyl-1H-pyrazol-1-yl)acetamide] here?
**A.** 69 nM

**Q.** What about the CC50 at 4 day [2] of the same compound?
**A.** > 500 nM

**Q.** What does the source list for `O=C(Cn1ccc(C2CC2)n1)N[C@@H](Cc1cc(F)cc(F)c1)c1nc2cc(-c3cccc(-c4ccccc4)c3)ccc2c(=O)n1-c1ccc(S(=O)(=O)N2CCOCC2)cc1` [Example 147, (S)-N-(1-(7-([1,1′-biphenyl]-3-yl)-3-(4-(morpholinosulfonyl)phenyl)-4-oxo-3,4-dihydroquinazolin-2-yl)-2-(3,5-difluorophenyl)ethyl)-2-(3-cyclopropyl-1H-pyrazol-1-yl)acetamide]?
**A.** EC50 [1]: 121 nM; CC50 at 4 day [2]: > 1000 nM

**Q.** What does the source list for `O=C(Cn1ccc(C2CC2)n1)N[C@@H](Cc1cc(F)cc(F)c1)c1nc2cc(-c3ccc(-c4ccccc4)cc3)ccc2c(=O)n1-c1ccc(S(=O)(=O)N2CCOCC2)cc1` [Example 148, (S)-N-(1-(7-([1,1′-biphenyl]-4-yl)-3-(4-(morpholinosulfonyl)phenyl)-4-oxo-3,4-dihydroquinazolin-2-yl)-2-(3,5-difluorophenyl)ethyl)-2-(3-cyclopropyl-1H-pyrazol-1-yl)acetamide]?
**A.** EC50 [1]: 71 nM; CC50 at 4 day [2]: > 500 nM

**Q.** Which EC50 [1] does the source give for `O=C(Cn1nc(C(F)F)c2c1C(F)(F)[C@@H]1C[C@H]21)N[C@@H](Cc1cc(F)cc(F)c1)c1nc2cc(-c3cccc(F)c3F)ccc2c(=O)n1-c1ccc(S(=O)(=O)N2CCOCC2)cc1` [Example 149, 2-((3bS,4aR)-3-(difluoromethyl)-5,5-difluoro-3b,4,4a,5-tetrahydro-1H-cyclopropa[3,4]cyclopenta[1,2-c]pyrazol-1-yl)-N-((S)-2-(3,5-difluorophenyl)-1-(7-(2,3-difluorophenyl)-3-(4-(morpholinosulfonyl)phenyl)-4-oxo-3,4-dihydroquinazolin-2-yl)ethyl)acetamide] here?
**A.** 8.1 nM

**Q.** And the CC50 at 4 day [2]?
**A.** > 1000 nM

**Q.** Which results are given for `Cc1cc(F)ccc1-c1ccc2c(=O)n(-c3ccc(S(=O)(=O)N4CCOCC4)cc3)c([C@H](Cc3cc(F)cc(F)c3)NC(=O)Cn3nc(C(F)F)c4c3C(F)(F)[C@@H]3C[C@H]43)nc2c1` [Example 150, 2-((3bS,4aR)-3-(difluoromethyl)-5,5-difluoro-3b,4,4a,5-tetrahydro-1H-cyclopropa[3,4]cyclopenta[1,2-c]pyrazol-1-yl)-N-((S)-2-(3,5-difluorophenyl)-1-(7-(4-fluoro-2-methylphenyl)-3-(4-(morpholinosulfonyl)phenyl)-4-oxo-3,4-dihydroquinazolin-2-yl)ethyl)acetamide]?
**A.** EC50 [1]: 11 nM; CC50 at 4 day [2]: > 500 nM

**Q.** For `Cn1nc(NS(C)(=O)=O)c2c(Cl)ccc(-n3c([C@H](Cc4cc(F)cc(F)c4)NC(=O)Cn4nc(C(F)F)cc4C(F)F)nc4cc(-c5ccccc5F)ccc4c3=O)c21` [Example 154, (S)-2-(3,5-bis(difluoromethyl)-1H-pyrazol-1-yl)-N-(1-(3-(4-chloro-1-methyl-3-(methylsulfonamido)-1H-indazol-7-yl)-7-(2-fluorophenyl)-4-oxo-3,4-dihydroquinazolin-2-yl)-2-(3,5-difluorophenyl)ethyl)acetamide], which EC50 [1] is on record?
**A.** 4.8 nM

**Q.** And the CC50 at 4 day [2]?
**A.** > 1000 nM

**Q.** With `CC(C)n1ccc(CC(=O)N[C@@H](Cc2cc(F)cc(F)c2)c2nc3cc(-c4ccccc4F)ccc3c(=O)n2-c2ccc(Cl)c3c(NS(C)(=O)=O)nn(C)c23)n1` [Example 155, (S)-N-(1-(3-(4-chloro-1-methyl-3-(methylsulfonamido)-1H-indazol-7-yl)-7-(2-fluorophenyl)-4-oxo-3,4-dihydroquinazolin-2-yl)-2-(3,5-difluorophenyl)ethyl)-2-(1-isopropyl-1H-pyrazol-3-yl)acetamide] as the compound, how does the EC50 [1] read?
**A.** 0.76 nM

**Q.** And the CC50 at 4 day [2]?
**A.** > 1000 nM

**Q.** Which results are given for `COc1ccc(-c2ccc3c(=O)n(-c4ccc(Cl)c5c(NS(C)(=O)=O)nn(C)c45)c([C@H](Cc4cc(F)cc(F)c4)NC(=O)Cn4nc(C(F)F)c5c4C(F)(F)[C@@H]4C[C@H]54)nc3c2)cc1` [Example 156, N-((S)-1-(3-(4-chloro-1-methyl-3-(methylsulfonamido)-1H-indazol-7-yl)-7-(4-methoxyphenyl)-4-oxo-3,4-dihydroquinazolin-2-yl)-2-(3,5-difluorophenyl)ethyl)-2-((3bS,4aR)-3-(difluoromethyl)-5,5-difluoro-3b,4,4a,5-tetrahydro-1H-cyclopropa[3,4]cyclopenta[1,2-c]pyrazol-1-yl)acetamide]?
**A.** EC50 [1]: 0.79 nM; CC50 at 4 day [2]: > 500 nM

**Q.** For `Cc1ncc(-c2ccc3c(=O)n(-c4ccc(Cl)c5c(NS(=O)(=O)C6CC6)nn(CC(F)F)c45)c([C@H](Cc4cc(F)cc(F)c4)NC(=O)Cn4nc(C(F)F)c5c4C(F)(F)[C@@H]4C[C@H]54)nc3c2)cn1` [Example 157, N-((S)-1-(3-(4-chloro-3-(cyclopropanesulfonamido)-1-(2,2-difluoroethyl)-1H-indazol-7-yl)-7-(2-methylpyrimidin-5-yl)-4-oxo-3,4-dihydroquinazolin-2-yl)-2-(3,5-difluorophenyl)ethyl)-2-((3bS,4aR)-3-(difluoromethyl)-5,5-difluoro-3b,4,4a,5-tetrahydro-1H-cyclopropa[3,4]cyclopenta[1,2-c]pyrazol-1-yl)acetamide], which EC50 [1] is on record?
**A.** 0.06 nM

**Q.** What about the CC50 at 4 day [2] of the same compound?
**A.** > 500 nM

**Q.** With `Cc1cccc(-c2ccc3c(=O)n(-c4ccc(Cl)c5c(NS(=O)(=O)C6CC6)nn(CC(F)F)c45)c([C@H](Cc4cc(F)cc(F)c4)NC(=O)Cn4nc(C(F)F)c5c4C(F)(F)[C@@H]4C[C@H]54)nc3c2)n1` [Example 158, N-((S)-1-(3-(4-chloro-3-(cyclopropanesulfonamido)-1-(2,2-difluoroethyl)-1H-indazol-7-yl)-7-(6-methylpyridin-2-yl)-4-oxo-3,4-dihydroquinazolin-2-yl)-2-(3,5-difluorophenyl)ethyl)-2-((3bS,4aR)-3-(difluoromethyl)-5,5-difluoro-3b,4,4a,5-tetrahydro-1H-cyclopropa[3,4]cyclopenta[1,2-c]pyrazol-1-yl)acetamide] as the compound, how does the EC50 [1] read?
**A.** 0.14 nM

**Q.** And the CC50 at 4 day [2]?
**A.** > 500 nM

**Q.** Which EC50 [1] does the source give for `Cc1ccnc(-c2ccc3c(=O)n(-c4ccc(Cl)c5c(NS(=O)(=O)C6CC6)nn(CC(F)F)c45)c([C@H](Cc4cc(F)cc(F)c4)NC(=O)Cn4nc(C(F)F)c5c4C(F)(F)[C@@H]4C[C@H]54)nc3c2)n1` [Example 159, N-((S)-1-(3-(4-chloro-3-(cyclopropanesulfonamido)-1-(2,2-difluoroethyl)-1H-indazol-7-yl)-7-(4-methylpyrimidin-2-yl)-4-oxo-3,4-dihydroquinazolin-2-yl)-2-(3,5-difluorophenyl)ethyl)-2-((3bS,4aR)-3-(difluoromethyl)-5,5-difluoro-3b,4,4a,5-tetrahydro-1H-cyclopropa[3,4]cyclopenta[1,2-c]pyrazol-1-yl)acetamide] here?
**A.** 0.1 nM

**Q.** And the CC50 at 4 day [2]?
**A.** > 500 nM

**Q.** Which results are given for `CS(=O)(=O)c1ccccc1-c1ccc2c(=O)n(-c3ccc(Cl)c4c(NS(=O)(=O)C5CC5)nn(CC(F)F)c34)c([C@H](Cc3cc(F)cc(F)c3)NC(=O)Cn3nc(C(F)F)c4c3C(F)(F)[C@@H]3C[C@H]43)nc2c1` [Example 160, N-((S)-1-(3-(4-chloro-3-(cyclopropanesulfonamido)-1-(2,2-difluoroethyl)-1H-indazol-7-yl)-7-(2-(methylsulfonyl)phenyl)-4-oxo-3,4-dihydroquinazolin-2-yl)-2-(3,5-difluorophenyl)ethyl)-2-((3bS,4aR)-3-(difluoromethyl)-5,5-difluoro-3b,4,4a,5-tetrahydro-1H-cyclopropa[3,4]cyclopenta[1,2-c]pyrazol-1-yl)acetamide]?
**A.** EC50 [1]: 0.082 nM; CC50 at 4 day [2]: > 500 nM

**Q.** For `Cc1cccc(-c2ccc3c(=O)n(-c4ccc(Cl)c5c(NS(C)(=O)=O)nn(CC(F)(F)F)c45)c([C@H](Cc4cc(F)cc(F)c4)NC(=O)Cn4nc(C(F)F)c5c4C(F)(F)[C@@H]4C[C@H]54)nc3c2)n1` [Example 161, N-((S)-1-(3-(4-chloro-3-(methylsulfonamido)-1-(2,2,2-trifluoroethyl)-1H-indazol-7-yl)-7-(6-methylpyridin-2-yl)-4-oxo-3,4-dihydroquinazolin-2-yl)-2-(3,5-difluorophenyl)ethyl)-2-((3bS,4aR)-3-(difluoromethyl)-5,5-difluoro-3b,4,4a,5-tetrahydro-1H-cyclopropa[3,4]cyclopenta[1,2-c]pyrazol-1-yl)acetamide], which EC50 [1] is on record?
**A.** 0.12 nM

**Q.** And the CC50 at 4 day [2]?
**A.** > 500 nM
